The results in this text go back to patent US20040034099A1, “Pharmaceutical composition” (priority 2002, published 2004).

This series can be described thus: Excipient screen (fillers, disintegrants, glidants, lubricants): tablets evaluated at accelerated conditions. In kind it is physicochemical. The conditions noted are these: tablets at accelerated conditions (40° C./75% RH); for filler the active ingredient is compatible with: physical characteristics and content of active ingredient. The protocol:
Experiments to screen fillers, disintegrants, glidants and lubricants were conducted for the composition according to the present invention. Tablets were evaluated for physical characteristics and content of active ingredient at accelerated conditions (40° C./75% RH). The assay values were analysed statistically. […] Of all lubricants examined, chlorambucil was most compatible with stearic acid.

`N[C@@H](Cc1ccc(N(CCCl)CCCl)cc1)C(=O)O` [melphalan, 4-[bis(2-chloroethyl)amino]-L-phenylalanine]: the “filler the active ingredient is compatible with” value is listed as “microcrystalline cellulose”.

For the compound `O=C(O)CCCc1ccc(N(CCCl)CCCl)cc1` [chlorambucil, 4-[bis(2-chloroethyl)amino]-benzenebutanoic acid], the “filler the active ingredient is compatible with” value is “a mixture of anhydrous lactose and microcrystalline cellulose”. In addition, the “lubricant the active ingredient is most compatible with” value (of all lubricants examined) is on record as “stearic acid”.
